One molecule from ChEMBL document CHEMBL2331174, “Inhibition of notch pathway signaling: a one compound mission to treat cancer” (ACS Med Chem Lett, 2013) can be followed below.

Test [1] in a line: Inhibition of gamma-secretase mediated cleavage of Notch 1 in human SW480 cells assessed as nuclear accumulation of Notch 1 intracellular domain (N1ICD) after 24 hrs by ELISA. The test is classed as cell-based. The conditions noted are these: SW480, 24 h.
Test [2] in a line: Inhibition of gamma-secretase mediated cleavage of Notch 1 in human BxPC3 cells assessed as nuclear accumulation of Notch 1 intracellular domain (N1ICD) after 24 hrs by ELISA. The test is classed as cell-based. As to conditions: BXPC-3, 24 h.
A short description of test [3]: Inhibition of gamma-secretase mediated cleavage of Notch 1 in human SUP-T1 cells assessed as nuclear accumulation of Notch 1 intracellular domain (N1ICD) after 24 hrs by ELISA. The test is classed as cell-based. As to conditions: SUP-T1, 24 h. For orientation: ELISA stands for enzyme-linked immunosorbent assay.
Test [4] is described as follows: Inhibition of gamma-secretase mediated cleavage of transfected mouse Notch 1 (1703-2183) harboring N-terminal 23 aminoacid signal peptide sequence in human HEK293deltaE12 cells assessed as nuclear accumulation of Notch 1 intracellular domain (N1ICD) after 24 hrs by fluorescence cellular imaging analysis. Format: cell-based.
Test [5] in a line: Inhibition of gamma-secretase mediated cleavage of Notch 1 in human DLD1 cells assessed as nuclear accumulation of Notch 1 intracellular domain (N1ICD) after 24 hrs by ELISA. The test is classed as cell-based. As to conditions: DLD-1, 24 h.
The nature of test [6]: Inhibition of gamma-secretase mediated cleavage of Notch 1 in human A2780 cells assessed as nuclear accumulation of Notch 1 intracellular domain (N1ICD) after 24 hrs by ELISA. The test is classed as cell-based. The conditions noted are these: A2780, 24 h.
Test [7] is described as follows: Inhibition of gamma-secretase mediated cleavage of Notch 1 in human Jurkat cells assessed as nuclear accumulation of Notch 1 intracellular domain (N1ICD) after 24 hrs by ELISA. The test is classed as cell-based.
Test [8] in a line: Inhibition of gamma-secretase mediated cleavage of Notch 1 in human MOLT-4 cells assessed as nuclear accumulation of Notch 1 intracellular domain (N1ICD) after 24 hrs by ELISA. The test is classed as cell-based. The conditions noted are these: MOLT-4, 24 h.
Test [9] can be described thus: Inhibition of gamma-secretase mediated cleavage of Notch 1 in human MIAPaCa2 cells assessed as nuclear accumulation of Notch 1 intracellular domain (N1ICD) after 24 hrs by ELISA. Format: cell-based. The conditions noted are these: MIA PaCa-2, 24 h.
Test [10] can be described thus: Inhibition of gamma-secretase mediated cleavage of Notch 1 in human HCT 116 cells assessed as nuclear accumulation of Notch 1 intracellular domain (N1ICD) after 24 hrs by ELISA. The test is classed as cell-based. As to conditions: HCT-116, 24 h.
Test [11] can be described thus: Inhibition of gamma-secretase mediated cleavage of Notch 1 in human MOLT-3 cells assessed as nuclear accumulation of Notch 1 intracellular domain (N1ICD) after 24 hrs by ELISA. The conditions noted are these: MOLT-3, 24 h. The test is classed as cell-based.
The nature of test [12]: Inhibition of gamma-secretase mediated cleavage of Notch 1 in human U-87-MG cells assessed as nuclear accumulation of Notch 1 intracellular domain (N1ICD) after 24 hrs by ELISA. Format: cell-based, U-87MG ATCC.
Test [13] is described as follows: Inhibition of gamma-secretase mediated cleavage of Notch 1 in human MDA-MB-231 cells assessed as nuclear accumulation of Notch 1 intracellular domain (N1ICD) after 24 hrs by ELISA. The test is classed as cell-based. The conditions noted are these: MDA-MB-231, 24 h.
Test [14] can be described thus: Inhibition of gamma-secretase mediated cleavage of Notch 1 in human K562 cells assessed as nuclear accumulation of Notch 1 intracellular domain (N1ICD) after 24 hrs by ELISA. Format: cell-based. As to conditions: K562, 24 h.
A short description of test [15]: Inhibition of gamma-secretase mediated cleavage of Notch 1 in human A375 cells assessed as nuclear accumulation of Notch 1 intracellular domain (N1ICD) after 24 hrs by ELISA. As to conditions: A-375, 24 h. The test is classed as cell-based.
Test [16] in a line: Inhibition of gamma-secretase mediated cleavage of Notch 1 in human CCRF-CEM cells assessed as nuclear accumulation of Notch 1 intracellular domain (N1ICD) after 24 hrs by ELISA. Format: cell-based.
Test [17] can be described thus: Inhibition of gamma-secretase mediated cleavage of Notch 1 in human HEL 92.1.7 cells assessed as nuclear accumulation of Notch 1 intracellular domain (N1ICD) after 24 hrs by ELISA. The test is classed as cell-based. As to conditions: HEL 92.1.7, 24 h.

The term IC50 denotes the concentration that gives 50% inhibition. Consider `C[C@H](NC(=O)CCC(F)(F)F)C(=O)N[C@@H]1C(=O)N(CCO)c2ncccc2-c2ccccc21` [CRENIGACESTAT], for which the half-inhibitory concentration (IC50) in test [1] stood at 0.1 nM; in test [2], 0.39 nM; in test [3], 1.24 nM; in test [4], 0.41 nM; in [5], 0.98 nM; in test [6] it was 1.03 nM. In addition, the IC50 in [7] is 5.95 nM; in [8], 0.74 nM; in test [9] it was 0.71 nM; in [10], 0.72 nM; in test [11], 0.61 nM; in [12], 0.28 nM. Also, the concentration for half-maximal inhibition (IC50) in test [13] was determined as 0.5 nM; in test [14], 0.74 nM; in [15], 0.48 nM; in test [16], 0.76 nM; in [17], 0.23 nM.
